Data published in publication PMC9220178, “Preclinical Characterization of Antioxidant Quinolyl Nitrone QN23 as a New Candidate for the Treatment of Ischemic Stroke” (Antioxidants, 2022).

Test system: adult male Wistar rats, four-vessel occlusion (4VO) transient forebrain ischemia
Experiment: Neuronal apoptosis by TUNEL assay after transient global cerebral ischemia (4VO)
Format: in vivo, rat
Details: for Neuroprotection (neuronal apoptosis, TUNEL): vehicle = 0%
Procedure: Transient forebrain ischemia was induced in adult male Wistar rats (10–12 weeks, Charles River, L’Arbresle, France) by the standard four-vessel occlusion (4VO) model previously described. Briefly, animals were anesthetized by intraperitoneal injection of a combination of ketamine, diazepam, and atropine (62.5, 5.0, and 0.25 mg/kg, respectively); positioned in a stereotactic device; and both vertebral arteries were cauterized. The next day, anesthesia was induced with 4% isoflurane and maintained at 2–2.5% isoflurane for carotid artery dissection. After anesthesia withdrawal, the carotid arteries were occluded with an atraumatic vascular clamp to induce brain ischemia. During the entire surgical procedure, temperature was monitored at 2 min intervals and kept at 37 °C. After 15 min of ischemia, the carotid arteries were unclamped for brain reperfusion. The animals were studied after 5 days of reperfusion (R5d), or after 11 weeks of reperfusion (long-term studies), and then they were euthanized under deep anesthesia. Animals from the sham control group were handled in the same way, but without occlusion of the carotid arteries. Ischemic animals were treated with vehicle solution (ethanol/polyethylene glycol 400/saline, 1:300:200 v/v), or with nitrones QN23 or NXY-059 in vehicle solution, as a single injection through the tail vein at the onset of reperfusion. For the therapeutic window experiments, the animals were also treated at reperfusion times 1, 3, and 6 h after ischemia. The treatments were prepared by an independent researcher and administered with concealed allocation. Treatments were administered in a randomized order obtained by a computer-based randomization program. To determine the sample size, a power analysis (http://www.biomath.info/power/ttest.htm, accessed on 12 March 2020) with significance level set at 0.05 and statistical power set at 0.8 (80%) rendered a sample size of <6 subjects per group. A total of 120 ischemic animals (30 animals treated with vehicle, 60 treated with QN23, and 30 treated with NXY-059) and 9 sham control animals were included in these studies. Additionally, 13 animals were excluded from the study: 6 animals were not ischemic and 7 animals died within the 24 h after the surgical procedure (5 vehicles, 1 QN23-treated at 1.0 mg/kg, and 1 QN23-treated at 2.0 mg/kg). The Animal Care Ethics Committee of the Hospital Universitario Ramón y Cajal (Madrid, Spain) authorized all the procedures involving the animal experimentation reported here (authorization number 04/2020). These experiments were performed according to ARRIVE guidelines and the legislation on the protection of animals used for scientific purposes in Spain (RD 53/2013) and the EU (Directive 2010/63/EU). The study was designed and conducted according to the STAIR guidelines regarding physiological monitoring, sample randomization, predefined exclusion criteria, allocation concealment, blinded assessment of outcomes, dose–response definition, and a conflict-of-interest statement.
After 5 days of reperfusion (R5d), or at 11 weeks of reperfusion in long-term studies, animals were euthanized by transcardiac perfusion via the left ventricle under deep anesthesia. First, blood was washed out with 200 mL of ice-cold saline medium, followed by fixation with 4% (w/v) paraformaldehyde solution in PBS for brain preservation. Then, the brains were carefully removed from the cranial cavity and placed in 4% (w/v) paraformaldehyde solution in PBS overnight at 4 °C. The next day, the brains were sequentially placed in 10%, 20%, and 30% (w/v) sucrose in PBS until sunken, and finally embedded in Tissue-Tek O.C.T. (Sakura Finetek, Torrance, CA, USA) before freezing at −80 °C. Brain coronal sections containing the hippocampus region were obtained by cryostat sectioning at the level of interaural line +5.7 ± 0.2 mm on Real Capillary Gap microscope slides (Agilent Dako, Santa Clara, CA, USA). […]

`COc1ccc2nc(Cl)c(/C=[N+](\[O-])C(C)(C)C)cc2c1` [QN23, (Z)-N-tert-Butyl-1-(2-chloro-6-methoxyquinolin-3-yl)methanimine Oxide] was tested, and the “Therapeutic window: injection time after reperfusion onset with significantly reduced apoptosis-positive cells” value (2.0 mg/kg i.v., CA1 and cortical regions, R5d, times tested 0, 1, 3, 6 h) was “up to 3 h”, the “Neuroprotection (neuronal apoptosis, TUNEL)” value (CA1, 1.5 mg/kg i.v. at reperfusion onset, R5d) was 16.2% and the “Neuroprotection (neuronal apoptosis, TUNEL)” value (CA1, 2.0 mg/kg i.v. at reperfusion onset, R5d) was 27.8%. The “Number of apoptotic cells compared with vehicle” value (CA1 and cortical regions, 2.0 and 2.5 mg/kg i.v. at reperfusion onset, R5d) was “significant decrease”, the “Neuroprotection (neuronal apoptosis, TUNEL)” value (cortical region, 1.5 mg/kg i.v. at reperfusion onset, R5d) was 85.0% and the “Neuroprotection (neuronal apoptosis, TUNEL)” value (cortical region, 2.0 mg/kg i.v. at reperfusion onset, R5d) was 88.0%. The “EC50 of neuroprotection, TUNEL assay” value (either CA1 or cortical region, i.v., from dose-response curve) was 0.3 mg/kg.
